Reference: article PMC10452110, “Indole-3-Acetamido-Polyamines as Antimicrobial Agents and Antibiotic Adjuvants” (Biomolecules, 2023)
pIC50: −log10 of the molar value. Values after ≈ are worked out from the molar mass of the structure shown. Where two headings read alike, the source gives them in different places. Marks after values point to notes of the source that are not given here.

What was measured:
[1] = test system: Acinetobacter baumannii (ATCC 19606); parameters: method as in Cadelis et al. [15]; settings: A. baumannii ATCC 19606; ref Cadelis et al. [15]; cited from earlier work
[2] = test system: Pseudomonas aeruginosa (ATCC 27853); parameters: method as in Cadelis et al. [15]; settings: P. aeruginosa ATCC 27853; ref Cadelis et al. [15]; cited from earlier work
MRSA (ATCC 43300) [3] = settings: ref Cadelis et al. [15]; cited from earlier work
[4] = test system: Klebsiella pneumoniae (ATCC 700603); parameters: method as in Cadelis et al. [15]; settings: K. pneumoniae ATCC 700603; ref Cadelis et al. [15]; cited from earlier work
P. aeruginosa ATCC 27853 [5] = test system: P. aeruginosa ATCC 27853; parameters: method as in Cadelis et al. [15]; settings: doxycycline at 4.5 µM, ref Cadelis et al. [15], cited from earlier work; for Dox/P. a fold change (ratio between intrinsic MIC of the test compound and combination MIC): P. aeruginosa ATCC 27853; for Dox/P. a: concentration required to restore doxycycline activity (combination MIC): P. aeruginosa
[6] = test system: Candida albicans (ATCC 90028); parameters: method as in Cadelis et al. [15]; settings: C. albicans ATCC 90028; ref Cadelis et al. [15]; cited from earlier work
[7] = test system: Cryptococcus neoformans (ATCC 208821); parameters: method as in Cadelis et al. [15]; settings: C. neoformans ATCC 208821; ref Cadelis et al. [15]; cited from earlier work
[8] = test system: HEK293 (human embryonic kidney) cells; parameters: method as in Cadelis et al. [15]; settings: ref Cadelis et al. [15], cited from earlier work; for pIC50: read-out: Cytotoxicity: concentration of compound at 50% cytotoxicity (IC50)
human red blood cells [9] = test system: human red blood cells; parameters: method as in Cadelis et al. [15]; settings: ref Cadelis et al. [15], cited from earlier work
[10] = test system: Escherichia coli (ATCC 25922); parameters: method as in Cadelis et al. [15]; settings: E. coli ATCC 25922; ref Cadelis et al. [15]; cited from earlier work
[11] = test system: Staphylococcus aureus (ATCC 25923); parameters: method as in Cadelis et al. [15]; settings: S. aureus ATCC 25923; ref Cadelis et al. [15]; cited from earlier work
E. coli = test system: E. coli; parameters: method as in PMID 33090655; settings: ref [15]; cited from earlier work
K. pneumoniae = test system: K. pneumoniae; parameters: method as in PMID 33090655; settings: ref [15]; cited from earlier work
[12] = test system: Staphylococcus aureus (ATCC 25923); assay: Intrinsic antimicrobial activity (MIC) against S. aureus; format: cell-based; settings: ATCC25923, S. aureus ATCC 25923, mean (n = 3), read-out: MIC S. a
Outline: (§1)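 Fungal strains were tested by CO-ADD at The University of Queensland using that facility's standard protocols, whereas bacterial MICs followed methods published earlier.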

[13] = test system: Cryptococcus neoformans (ATCC 208821); assay: Intrinsic antifungal activity (MIC) against C. neoformans; format: cell-based; settings: ATCC208821, C. neoformans ATCC 208821, mean (n = 2), read-out: MIC C. n
Outline: (§2)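 For the two bacterial species, susceptibility to compounds and antibiotics follows a prior protocol. Both fungal species are assessed by the Queensland-based Community for Open Antimicrobial Drug Discovery using its standard procedures.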

Cytotoxicity assay = format: cell-based; settings: human; HEK293 cells; mean (n = 2); read-out: Cytotoxicity: concentration of compound at 50% cytotoxicity (IC50)
Procedure: Cytotoxicity assays were conducted using the protocols previously reported.

[14] = test system: Acinetobacter baumannii (ATCC 19606); assay: Intrinsic antimicrobial activity (MIC) against A. baumannii; format: cell-based; settings: ATCC19606, A. baumannii ATCC 19606, mean (n = 2), read-out: MIC A. b
S. aureus ATCC 25923 = assay: Real time growth inhibition curves, microdilution MIC and MBC, S. aureus; format: cell-based, Staphylococcus aureus
Description: (§3) We next assessed the kinetics of antibacterial activity of 15c towards the Gram-positive bacteria S. aureus ATCC 25923 and MRSA (CF-Marseille) by measuring real time growth inhibition curves.

P. aeruginosa ATCC 27853 [15] = assay: Enhancement of doxycycline action against P. aeruginosa; format: cell-based, Pseudomonas aeruginosa; settings: doxycycline at 4.5 µM
Procedure: (§4) Antibiotic enhancer concentrations were determined using previously reported protocols.

[16] = test system: Candida albicans (ATCC 90028); assay: Intrinsic antifungal activity (MIC) against C. albicans; format: cell-based; settings: ATCC90028, C. albicans ATCC 90028, mean (n = 2), read-out: MIC C. a
Outline: as §2

MRSA (CF-Marseille) = assay: Real time growth inhibition curves, microdilution MIC and MBC, MRSA (CF-Marseille); format: cell-based, Staphylococcus aureus
Description: as §3

[17] = test system: Pseudomonas aeruginosa (ATCC 27853); assay: Intrinsic antimicrobial activity (MIC) against P. aeruginosa; format: cell-based; settings: ATCC27853, P. aeruginosa ATCC 27853, mean (n = 3), read-out: MIC P. a
Outline: as §1

MRSA (ATCC 43300) [18] = assay: Intrinsic antimicrobial activity (MIC) against MRSA; format: cell-based; settings: Staphylococcus aureus, MRSA ATCC 43300; mean (n = 2); read-out: MIC MRSA
Outline: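 Susceptibility testing: bacteria per earlier published methods; fungi per CO-ADD standard protocols (University of Queensland).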

[19] = test system: Escherichia coli (ATCC 25922); assay: Intrinsic antimicrobial activity (MIC) against E. coli; format: cell-based; settings: ATCC25922, E. coli ATCC 25922, mean (n = 3), read-out: MIC E. c
Outline: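 Antibacterial MICs by established in-house protocol; yeast MICs run externally at CO-ADD, University of Queensland, per their standard screening protocols.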

human red blood cells [20] = assay: Hemolytic assay; format: cell-based; settings: mean (n = 2)
Procedure: Hemolysis assays were conducted using the protocols previously reported.

E. coli ATCC 25922 = assay: Enhancement of erythromycin action against E. coli; format: cell-based, Escherichia coli; settings: erythromycin at 10.9 µM
Procedure: as §4

[21] = test system: Klebsiella pneumoniae (ATCC 700603); assay: Intrinsic antimicrobial activity (MIC) against K. pneumoniae; format: cell-based; settings: ATCC700603, K. pneumoniae ATCC 700603, mean (n = 2), read-out: MIC K. p
[22] = lowest tested concentration 6.4 μM

SMILES	MIC A. b [1] [µM]	MIC P. a [2] [µM]	MIC MRSA (MRSA (ATCC 43300) [3]) [µM]	MIC K. p [4] [µM]	Dox/P. a fold change (ratio between intrinsic MIC of the test compound and combination MIC) (P. aeruginosa ATCC 27853 [5]) [fold]	Dox/P. a: concentration required to restore doxycycline activity (combination MIC) (P. aeruginosa ATCC 27853 [5]) [µM]	MIC C. a [6] [µM]	MIC C. n [7] [µM]	pIC50 [8]	Hemolysis: concentration of compound at 10% hemolytic activity (HC10) (human red blood cells [9]) [µM]	MIC E. c [10]	MIC S. a [11] [µM]	MIC [12] [µM]	MIC [13] [µM]	pIC50 (Cytotoxicity assay)	MIC [14] [µM]	Dox/P. a: concentration required to restore doxycycline activity (combination MIC) (P. aeruginosa ATCC 27853 [15]) [µM]	MIC [16] [µM]	MIC [17] [µM]	MIC (MRSA (ATCC 43300) [18]) [µM]	other results
COc1ccc2[nH]cc(CC(=O)NCCCNCCCCNCCCNC(=O)Cc3c[nH]c4ccc(OC)cc34)c2c1 [Compound 16a]	>55	>200	>55	>55	> 1	200	>55	>55	< 4.40	>40	>200 µM	200 (≈ 115 µg/mL)									
O=C(Cc1c[nH]c2ccc(Br)cc12)NCCCNCCCCNCCCNC(=O)Cc1c[nH]c2ccc(Br)cc12 [Compound 15a]	>48	200 (≈ 135 µg/mL)	47.4 (≈ 32 µg/mL)	>48	32	6.25	>48	11.9 (≈ 8.03 µg/mL)	< 4.46	>35	200 µM (≈ 135 µg/mL)	25 (≈ 16.9 µg/mL)									enhancement of the antibiotic action of doxycycline (MIC) (E. coli): 3.125 µM; Cytotoxicity: concentration of compound at 50% cytotoxicity (IC50) [8]: negligible; Hemolysis: concentration of compound at 10% hemolytic activity (HC10) (human red blood cells [9]; listed as 5): negligible; enhancement of the antibiotic action of doxycycline (MIC) (K. pneumoniae): 6.25 µM
O=C(Cc1c[nH]c2ccc(Br)cc12)NCCCNCCCCCCCNCCCNC(=O)Cc1c[nH]c2ccc(Br)cc12.O=C(O)C(F)(F)F.O=C(O)C(F)(F)F [Compound 15c, N^1,N^7-Bis(3-(2-(5-bromo-1H-indol-3-yl)acetamido)propyl)heptane-1,7-diaminium 2,2,2-trifluoroacetate]													12.7	≤ 0.26	< 4.47	> 34	6.62	≤ 0.26	106	≤ 0.26	mode of antibacterial action (MBC versus MIC) (S. aureus ATCC 25923): bactericidal; MIC (S. aureus ATCC 25923; Staphylococcus aureus, ATCC25923, matches real time growth curve at 18 h, read-out: MIC (classical microdilution methodology)): 12.7 µM; MBC (S. aureus ATCC 25923; Staphylococcus aureus, ATCC25923, read-out: minimum bactericidal concentration (MBC)): 12.7 µM; real time growth inhibition (S. aureus ATCC 25923; at 25.4 μM and 12.7 μM): completely inhibited; time after which bacterial growth was detected (S. aureus ATCC 25923; [22]): > 4 h; mode of antibacterial action (MBC versus MIC) (MRSA (CF-Marseille)): bactericidal; MIC (MRSA (CF-Marseille); Staphylococcus aureus, matches real time growth curve at 18 h, read-out: MIC (classical microdilution methodology)): 12.7 µM; MBC (MRSA (CF-Marseille); Staphylococcus aureus, read-out: minimum bactericidal concentration (MBC)): 12.7 µM; real time growth inhibition (MRSA (CF-Marseille); at 25.4 μM and 12.7 μM): completely inhibited; time after which bacterial growth was detected (MRSA (CF-Marseille); [22]): > 4 h; MIC [19]: 13.2 µM; Hemolysis: concentration of compound at 10% hemolytic activity (HC10) (human red blood cells [20]): >34 µM; Eryth/E. c: concentration required to restore erythromycin activity (combination MIC) (E. coli ATCC 25922): 6.62 µM; MIC [21]: > 34 µM
O=C(Cc1c[nH]c2ccccc12)NCCCNCCCCNCCCNC(=O)Cc1c[nH]c2ccccc12 [Compound 14a]	>62	>200	>62	>62	> 4	50	>62	>62	< 4.37	>43	>200 ^j µM	200 (≈ 103 µg/mL)									
COc1ccc2[nH]cc(CC(=O)NCCCNCCCCCCNCCCNC(=O)Cc3c[nH]c4ccc(OC)cc34)c2c1.O=C(O)C(F)(F)F.O=C(O)C(F)(F)F [Compound 16b, N^1,N^6-Bis(3-(2-(5-methoxy-1H-indol-3-yl)acetamido)propyl)hexane-1,6-diaminium 2,2,2-trifluoroacetate]													50	≤ 0.3	< 4.42	> 38	25	> 38	> 200	38	Dox/P. a fold change (ratio between intrinsic MIC of the test compound and combination MIC) (P. aeruginosa ATCC 27853 [15]): > 8 fold; MIC [19]: 100 µM; Hemolysis: concentration of compound at 10% hemolytic activity (HC10) (human red blood cells [20]): >38 µM; Eryth/E. c: concentration required to restore erythromycin activity (combination MIC) (E. coli ATCC 25922): 50 µM; MIC [21]: > 38 µM
